According to patent US20160038468A1 (priority 2013, published 2016):
Where two headings read alike, the source gives them in different places.

Legend:
Format in all cases: cell-based
Atopobium vaginae = experiment: Agar dilution MIC (CLSI), Atopobium vaginae vaginal isolates; conditions: for Number of strains with indicated MIC: 62 samples
Mobiluncus spp = experiment: Agar dilution MIC (CLSI), Mobiluncus spp vaginal isolate; conditions: read-out: Minimal Inhibitory Concentration (MIC)
Prevotella bivia = experiment: Agar dilution MIC (CLSI), Prevotella bivia vaginal isolates; conditions: for Number of strains with indicated MIC: 34 samples; for MIC: read-out: Minimal Inhibitory Concentration (MIC)
Prevotella timonensis = experiment: Agar dilution MIC (CLSI), Prevotella timonensis vaginal isolates; conditions: for MIC: read-out: Minimal Inhibitory Concentration (MIC); for Number of strains with indicated MIC: 33 samples
Anaerococcus tetradius = experiment: Agar dilution MIC (CLSI), Anaerococcus tetradius vaginal isolates; conditions: for MIC: read-out: Minimal Inhibitory Concentration (MIC); for Number of strains with indicated MIC: 21 samples
[1] = Fannyhessea vaginae, # tested 62
[2] = Hoylesella timonensis, # tested 33
[3] = Anaerococcus tetradius, # tested 21

CCC[C@@H]1C[C@@H](C(=O)N[C@@H]([C@H]2O[C@H](SC)[C@H](O)[C@@H](O)[C@H]2O)[C@H](C)Cl)N(C)C1 [Clindamycin]
19 (58) μg/ml: Susceptible (Prevotella timonensis; number (%) of isolates, # tested 33)
0.25 µg/mL: MIC90 (Atopobium vaginae; [1]) | MIC (Anaerococcus tetradius; Anaerococcus tetradius, isolate 601222V 15)
0.03 µg/mL: MIC (Prevotella bivia; Prevotella bivia, isolate 601203 5) | MIC (Prevotella bivia; Prevotella bivia, isolate 601212 9) | MIC (Prevotella bivia; Prevotella bivia, isolate 601293 22) | MIC (Prevotella bivia; Prevotella bivia, isolate 601367 M) | MIC (Prevotella bivia; Prevotella bivia, isolate 601388 T) | MIC (Prevotella bivia; Prevotella bivia, isolate 601389 J) | MIC (Prevotella bivia; Prevotella bivia, isolate 601409 V) | MIC (Prevotella bivia; Prevotella bivia, isolate 601410 12) | MIC (Prevotella timonensis; Hoylesella timonensis, isolate 601080 5) | MIC (Prevotella timonensis; Hoylesella timonensis, isolate 601088 15) | MIC (Prevotella timonensis; Hoylesella timonensis, isolate 601093 24) | MIC (Prevotella timonensis; Hoylesella timonensis, isolate 601097 S) | MIC (Prevotella timonensis; Hoylesella timonensis, isolate 601098 B) | MIC (Prevotella timonensis; Hoylesella timonensis, isolate 601170 13) | MIC (Prevotella timonensis; Hoylesella timonensis, isolate 601178 19) | MIC (Prevotella timonensis; Hoylesella timonensis, isolate 601194 9B) | MIC (Prevotella timonensis; Hoylesella timonensis, isolate 601245 16) | MIC (Prevotella timonensis; Hoylesella timonensis, isolate 601252 B) | MIC (Prevotella timonensis; Hoylesella timonensis, isolate 601255 17) | MIC (Prevotella timonensis; Hoylesella timonensis, isolate 601266 18) | MIC (Prevotella timonensis; Hoylesella timonensis, isolate 601281 22) | MIC (Prevotella timonensis; Hoylesella timonensis, isolate 601287 H) | MIC (Prevotella timonensis; Hoylesella timonensis, isolate 601311 B) | MIC (Prevotella timonensis; Hoylesella timonensis, isolate 601388 S) | MIC (Prevotella timonensis; Hoylesella timonensis, isolate 601459 21) | MIC50 (Prevotella timonensis; [2]) | MIC (Anaerococcus tetradius; Anaerococcus tetradius, isolate 601221V 12)
3: Number of strains with indicated MIC (Anaerococcus tetradius; MIC >[…])
4 µg/mL: MIC (Mobiluncus spp) | MIC (Anaerococcus tetradius; Anaerococcus tetradius, isolate 601242V 17)
1: Number of strains with indicated MIC (Atopobium vaginae; MIC 8 μg/ml) | Number of strains with indicated MIC (Atopobium vaginae; MIC 16 μg/ml) | Number of strains with indicated MIC (Atopobium vaginae; MIC >[…]) | Number of strains with indicated MIC (Atopobium vaginae; MIC […] μg/ml) | Number of strains with indicated MIC (Prevotella bivia; MIC 0.06 μg/ml) | Number of strains with indicated MIC (Prevotella timonensis; MIC […]) | Number of strains with indicated MIC (Anaerococcus tetradius; MIC 0.03 μg/ml) | Number of strains with indicated MIC (Anaerococcus tetradius; MIC 8 μg/ml) | Number of strains with indicated MIC (Anaerococcus tetradius; MIC […])
25: Number of strains with indicated MIC (Prevotella bivia; MIC >[…])
2 µg/mL: MIC (Anaerococcus tetradius; Anaerococcus tetradius, isolate 601098V T) | MIC (Anaerococcus tetradius; Anaerococcus tetradius, isolate 601103V 21) | MIC (Anaerococcus tetradius; Anaerococcus tetradius, isolate 601202V 11) | MIC (Anaerococcus tetradius; Anaerococcus tetradius, isolate 601212V 14) | MIC (Anaerococcus tetradius; Anaerococcus tetradius, isolate 601256V 9) | MIC (Anaerococcus tetradius; Anaerococcus tetradius, isolate 601305V J) | MIC (Anaerococcus tetradius; Anaerococcus tetradius, isolate 601326V H) | MIC (Anaerococcus tetradius; Anaerococcus tetradius, isolate 601340V 25) | MIC (Anaerococcus tetradius; Anaerococcus tetradius, isolate 601342V N) | MIC (Anaerococcus tetradius; Anaerococcus tetradius, isolate 601368V 42) | MIC (Anaerococcus tetradius; Anaerococcus tetradius, isolate 601369V 12) | MIC (Anaerococcus tetradius; Anaerococcus tetradius, isolate 601429V 15) | MIC50 (Anaerococcus tetradius; [3])
17: Number of strains with indicated MIC (Prevotella timonensis; MIC 0.03 μg/ml)
>128 µg/mL: Minimal Inhibitory Concentration (MIC) (Prevotella bivia; isolate 601096 25) | Minimal Inhibitory Concentration (MIC) (Prevotella bivia; isolate 601166 M) | Minimal Inhibitory Concentration (MIC) (Prevotella bivia; isolate 601202 21) | Minimal Inhibitory Concentration (MIC) (Prevotella bivia; isolate 601213 9A) | Minimal Inhibitory Concentration (MIC) (Prevotella bivia; isolate 601214 B) | Minimal Inhibitory Concentration (MIC) (Prevotella bivia; isolate 601241 13) | Minimal Inhibitory Concentration (MIC) (Prevotella bivia; isolate 601243 15) | Minimal Inhibitory Concentration (MIC) (Prevotella bivia; isolate 601255 10) | Minimal Inhibitory Concentration (MIC) (Prevotella bivia; isolate 601261 C) | Minimal Inhibitory Concentration (MIC) (Prevotella bivia; isolate 601283 20) | Minimal Inhibitory Concentration (MIC) (Prevotella bivia; isolate 601285 14) | Minimal Inhibitory Concentration (MIC) (Prevotella bivia; isolate 601305 H) | Minimal Inhibitory Concentration (MIC) (Prevotella bivia; isolate 601340 31) | Minimal Inhibitory Concentration (MIC) (Prevotella bivia; isolate 601374 A1) | Minimal Inhibitory Concentration (MIC) (Prevotella bivia; isolate 601378 B) | Minimal Inhibitory Concentration (MIC) (Prevotella bivia; isolate 601379 19) | Minimal Inhibitory Concentration (MIC) (Prevotella bivia; isolate 601389 10) | Minimal Inhibitory Concentration (MIC) (Prevotella bivia; isolate 601392 14) | Minimal Inhibitory Concentration (MIC) (Prevotella bivia; isolate 601429 1) | Minimal Inhibitory Concentration (MIC) (Prevotella bivia; isolate 601433 19) | Minimal Inhibitory Concentration (MIC) (Prevotella bivia; isolate 601449 E) | Minimal Inhibitory Concentration (MIC) (Prevotella bivia; isolate 601453 A) | Minimal Inhibitory Concentration (MIC) (Prevotella bivia; isolate 601455 D1) | Minimal Inhibitory Concentration (MIC) (Prevotella bivia; isolate 601458 16) | Minimal Inhibitory Concentration (MIC) (Prevotella timonensis; isolate 301212 10) | Minimal Inhibitory Concentration (MIC) (Prevotella timonensis; isolate 601175 J) | Minimal Inhibitory Concentration (MIC) (Prevotella timonensis; isolate 601214 A) | Minimal Inhibitory Concentration (MIC) (Prevotella timonensis; isolate 601226 C) | Minimal Inhibitory Concentration (MIC) (Prevotella timonensis; isolate 601234 B) | Minimal Inhibitory Concentration (MIC) (Prevotella timonensis; isolate 601293 13) | Minimal Inhibitory Concentration (MIC) (Prevotella timonensis; isolate 601367 E) | Minimal Inhibitory Concentration (MIC) (Prevotella timonensis; isolate 601370 13) | Minimal Inhibitory Concentration (MIC) (Prevotella timonensis; isolate 601401 J) | Minimal Inhibitory Concentration (MIC) (Prevotella timonensis; isolate 601411 S) | Minimal Inhibitory Concentration (MIC) (Prevotella timonensis; isolate 601414 O) | Minimal Inhibitory Concentration (MIC) (Prevotella timonensis; isolate 601422 39) | Minimal Inhibitory Concentration (MIC) (Anaerococcus tetradius; isolate 601379V 25) | Minimal Inhibitory Concentration (MIC) (Anaerococcus tetradius; isolate 602375V 22)
1 µg/mL: MIC (Anaerococcus tetradius; Anaerococcus tetradius, isolate 601175V I) | MIC (Anaerococcus tetradius; Anaerococcus tetradius, isolate 601450V 22)
2: Number of strains with indicated MIC (Prevotella timonensis; MIC 0.06 μg/ml)
128 µg/mL: MIC (Prevotella timonensis; Hoylesella timonensis, isolate 601429 11)
14 (42) μg/ml: Resistant (Prevotella timonensis; number (%) of isolates, # tested 33, resistance: rifaximin >32, metronidazole >32, clindamycin >8 μg/ml)
28: Number of strains with indicated MIC (Atopobium vaginae; MIC 0.03 μg/ml)
13: Number of strains with indicated MIC (Prevotella timonensis; MIC >[…])
8 µg/mL: MIC (Anaerococcus tetradius; Anaerococcus tetradius, isolate 601401V T)
10: Number of strains with indicated MIC (Atopobium vaginae; MIC 0.06 μg/ml)
0.06 µg/mL: MIC50 (Atopobium vaginae; [1]) | MIC (Prevotella bivia; Prevotella bivia, isolate 601355 B) | MIC (Prevotella timonensis; Hoylesella timonensis, isolate 601167 13) | MIC (Prevotella timonensis; Hoylesella timonensis, isolate 601278 12)
8: Number of strains with indicated MIC (Prevotella bivia; MIC 0.03 μg/ml)
25 (74) μg/ml: Resistant (Prevotella bivia; number (%) of isolates, # tested 34, resistance: rifaximin >32, metronidazole >32, clindamycin >8 μg/ml)
> 128 µg/mL: MIC (Atopobium vaginae; Fannyhessea vaginae, read-out: Minimal Inhibitory Concentration (MIC)) | MIC (Prevotella bivia; Prevotella bivia) | MIC50 (Prevotella bivia; Prevotella bivia, # tested 34) | MIC90 (Prevotella bivia; Prevotella bivia, # tested 34) | MIC (Prevotella timonensis; Hoylesella timonensis) | MIC90 (Prevotella timonensis; [2]) | MIC (Anaerococcus tetradius; Anaerococcus tetradius) | MIC90 (Anaerococcus tetradius; [3])
9 (26) μg/ml: Susceptible (Prevotella bivia; number (%) of isolates, # tested 34)
